Reference: publication PMC12298351, “Novel 3,19-(N-Phenyl-3-(4-fluorophenyl)-pyrazole) Acetal of Andrographolide Promotes Cell Cycle Arrest and Apoptosis in MDA-MB-231 Breast Cancer Cells” (Pharmaceuticals, 2025)

How the values were obtained:
M14 = assay type: cell-based; conditions: M14, Melanoma
TK-10 = assay type: cell-based; conditions: TK-10, Renal
K-562 = conditions: K-562, Leukemia
RPMI-8226 = conditions: RPMI-8226, Leukemia
KM12 = conditions: KM12, Colon
SW-620 = conditions: SW-620, Colon
SF-268 = conditions: SF-268, CNS
U251 = conditions: U251, CNS
SK-MEL-28 = conditions: SK-MEL-28, Melanoma
UACC-257 = conditions: UACC-257, Melanoma
UACC-62 = conditions: UACC-62, Melanoma
IGROV1 = conditions: IGROV1, Ovarian
OVCAR-3 = conditions: OVCAR-3, Ovarian
OVCAR-8 = conditions: OVCAR-8, Ovarian
SK-OV-3 = conditions: SK-OV-3, Ovarian
A498 = conditions: A498, Renal
CAKI-1 = conditions: CAKI-1, Renal
RXF 393 = conditions: RXF 393, Renal
UO-31 = conditions: UO-31, Renal
DU-145 = conditions: DU-145, Prostate
MCF7 = conditions: MCF7, Breast
MDA-MB-468 = conditions: MDA-MB-468, Breast
[1] = read-out: 50% lethal concentration (LC50)
[2] = read-out: 50% lethal concentration (LC50), Leukemia
[3] = read-out: 50% lethal concentration (LC50), Non-Small Cell Lung
[4] = read-out: 50% lethal concentration (LC50), Renal

With `C=C1CCC2C3(C)COC(c4cn(-c5ccccc5)nc4-c4cccc(Br)c4)OC3CCC2(C)C1CC=C1C(=O)OCC1O` (centres unmarked) [1e] the GI50 (M14) was 1.86 µM, the Total growth inhibition (TGI) (M14) was 4.12 µM and the GI50 (TK-10) was 2.12 µM. For the same compound, the Total growth inhibition (TGI) (TK-10) was 3.58 µM, the CC50 (TK-10; [1]) was 40.4 µM and the GI50 (CCRF-CEM; Leukemia) was 0.7 µM. For the same compound, the CC50 (CCRF-CEM; [2]) was over 100 µM, the GI50 (K-562) was 2.89 µM and the Total growth inhibition (TGI) (K-562) was over 100 µM. For the same compound, the CC50 (K-562; [1]) was over 100 µM, the GI50 (RPMI-8226) was 2.75 µM and the Total growth inhibition (TGI) (RPMI-8226) was over 100 µM. The CC50 (RPMI-8226; [1]) was over 100 µM, the GI50 (SR; Leukemia) was 1.77 µM and the CC50 (SR; [2]) was over 100 µM. The Total growth inhibition (TGI) (A549/ATCC; Non-Small Cell Lung) was 19.9 µM, the GI50 (A549/ATCC; Non-Small-Cell Lung) was 3.07 µM and the CC50 (A549/ATCC; [3]) was over 100 µM. The Total growth inhibition (TGI) (EKVX; Non-Small Cell Lung) was 5.16 µM, the GI50 (EKVX; Non-Small-Cell Lung) was 2.1 µM and the CC50 (EKVX; [3]) was over 100 µM. It also gave a Total growth inhibition (TGI) (HOP-62; HOP-62, Non-Small Cell Lung) of 4.94 µM, a GI50 (HOP-62; HOP-62, Non-Small-Cell Lung) of 2.08 µM and a CC50 (HOP-62; read-out: 50% lethal concentration (LC50), HOP-62, Non-Small Cell Lung) of over 100 µM. The Total growth inhibition (TGI) (NCI-H460; NCI-H460, Non-Small Cell Lung) was 3.49 µM, the GI50 (NCI-H460; NCI-H460, Non-Small-Cell Lung) was 1.78 µM and the CC50 (NCI-H460; read-out: 50% lethal concentration (LC50), NCI-H460, Non-Small Cell Lung) was 6.83 µM. For the same compound, the GI50 (KM12) was 1.83 µM, the Total growth inhibition (TGI) (KM12) was 3.58 µM and the GI50 (SW-620) was 1.72 µM. For the same compound, the Total growth inhibition (TGI) (SW-620) was 3.64 µM, the GI50 (SF-268) was 2.02 µM and the Total growth inhibition (TGI) (SF-268) was 4.26 µM. It also gave a CC50 (SF-268; [1]) of 8.98 µM, a GI50 (U251) of 1.69 µM and a Total growth inhibition (TGI) (U251) of 3.13 µM. For the same compound, the GI50 (LOX IMVI; Melanoma) was 1.64 µM, the Total growth inhibition (TGI) (LOX IMVI; Melanoma) was 3.03 µM and the CC50 (LOX IMVI; read-out: 50% lethal concentration (LC50), Melanoma) was 5.59 µM. For the same compound, the GI50 (SK-MEL-28) was 1.73 µM, the Total growth inhibition (TGI) (SK-MEL-28) was 3.28 µM and the CC50 (SK-MEL-28; [1]) was 6.2 µM. It also gave a GI50 (UACC-257) of 1.77 µM, a Total growth inhibition (TGI) (UACC-257) of 3.45 µM and a GI50 (UACC-62) of 1.68 µM. The Total growth inhibition (TGI) (UACC-62) was 3.4 µM, the CC50 (UACC-62; [1]) was 6.9 µM and the GI50 (IGROV1) was 2.2 µM. For the same compound, the Total growth inhibition (TGI) (IGROV1) was 4.83 µM, the CC50 (IGROV1; [1]) was over 100 µM and the GI50 (OVCAR-3) was 1.69 µM. For the same compound, the Total growth inhibition (TGI) (OVCAR-3) was 3.21 µM, the CC50 (OVCAR-3; [1]) was 6.08 µM and the GI50 (OVCAR-8) was 1.76 µM. For the same compound, the Total growth inhibition (TGI) (OVCAR-8) was 4.22 µM, the CC50 (OVCAR-8; [1]) was over 100 µM and the GI50 (NCI/ADR-RES; Ovarian) was 2.15 µM. The Total growth inhibition (TGI) (NCI/ADR-RES; Ovarian) was 5.37 µM, the CC50 (NCI/ADR-RES; read-out: 50% lethal concentration (LC50), Ovarian) was over 100 µM and the GI50 (SK-OV-3) was 4.16 µM. The Total growth inhibition (TGI) (SK-OV-3) was 48.3 µM, the CC50 (SK-OV-3; [1]) was over 100 µM and the GI50 (A498) was 4.33 µM. The Total growth inhibition (TGI) (A498) was 8.1 µM, the CC50 (A498; [1]) was 44 µM and the GI50 (ACHN; Renal) was 1.61 µM. It also gave a Total growth inhibition (TGI) (ACHN; Renal) of 16.8 µM, a CC50 (ACHN; [4]) of 5.51 µM and a GI50 (CAKI-1) of 1.42 µM. The Total growth inhibition (TGI) (CAKI-1) was 2.98 µM, the CC50 (CAKI-1; [1]) was 6.04 µM and the GI50 (RXF 393) was 1.18 µM. The Total growth inhibition (TGI) (RXF 393) was 2.93 µM, the CC50 (RXF 393; [1]) was 5.51 µM and the GI50 (SN12C; Renal) was 1.57 µM. The Total growth inhibition (TGI) (SN12C; Renal) was 2.55 µM, the CC50 (SN12C; [4]) was 8.12 µM and the GI50 (UO-31) was 1.45 µM. It also gave a Total growth inhibition (TGI) (UO-31) of 5.34 µM, a CC50 (UO-31; [1]) of 6.83 µM and a GI50 (DU-145) of 2.12 µM. For the same compound, the Total growth inhibition (TGI) (DU-145) was 4.57 µM, the CC50 (DU-145; [1]) was 9.82 µM and the GI50 (MCF7) was 1.77 µM. For the same compound, the Total growth inhibition (TGI) (MCF7) was over 100 µM, the CC50 (MCF7; [1]) was over 100 µM and the GI50 (MDA-MB-468) was 1.82 µM. For the same compound, the Total growth inhibition (TGI) (MDA-MB-468) was 3.41 µM and the CC50 (MDA-MB-468; [1]) was 6.37 µM.
